The first assay concerns Tetranychus urticae. Nature of the assay: Acaricidal activity against Tetranychus urticae (two-spotted spider mite) assessed as mite mortality at 500 ppm relative to untreated control. It is filed as functional.
As a reminder, the mortality is the percentage killed. With `Cc1nc(C)c(C(=O)Nc2nnc(C(F)(F)C(F)(F)C(F)(F)F)s2)s1`, the mortality at 500 ppm was more than 80%.
As to `CCc1nc(C)c(C(=O)Nc2nnc(C(F)(F)C(F)(F)C(F)(F)F)s2)s1`, the mortality at 500 ppm is less than 80%.
On the same count and under the same terms, in the case of `Cc1nc(C(C)C)sc1C(=O)Nc1nnc(C(F)(F)C(F)(F)C(F)(F)F)s1` it was less than 80%; in that of `Cc1nc(C(C)(C)C)sc1C(=O)Nc1nnc(C(F)(F)F)s1`, less than 80%.
The same measure, in the same setting: in the case of `Cn1nc(C(C)(C)C)cc1C(=O)Nc1nnc(C(F)(F)F)s1` it was less than 80%.
Take `Cn1nc(C(C)(C)C)c(I)c1C(=O)Nc1nnc(C(F)(F)F)s1`: the mortality at 500 ppm is less than 80%.
For `Cn1nc(C(C)(C)C)c(Cl)c1C(=O)Nc1nnc(C(F)F)s1`, the mortality at 500 ppm is less than 80%.
In the case of `Cn1nc(C(C)(C)C)c(Cl)c1C(=O)Nc1nnc(C(F)(F)C(F)F)s1`, the mortality at 500 ppm is less than 80%.
For the compound `Cn1nc(C(C)(C)C)c(Cl)c1C(=O)Nc1nnc(C(F)(F)C(F)(F)C(F)(F)C(F)(F)C(F)(F)C(F)(F)F)s1`, the mortality at 500 ppm was less than 80%.
The same measure, in the same setting: the value for `Cn1nc(C2CC2)c(Cl)c1C(=O)Nc1nnc(C(F)(F)F)s1` was more than 80%.
Regarding `CCCCc1nn(C)c(C(=O)Nc2nnc(C(F)(F)F)s2)c1Cl`, the mortality at 500 ppm was more than 80%.

Another assay has as its system Tetranychus urticae. The assay is described as follows: Acaricidal activity against Tetranychus urticae (two-spotted spider mite) assessed as mite mortality at 200 ppm relative to untreated control. It is filed as functional.
On to `CCC(C)c1nn(C)c(C(=O)Nc2nnc(C(F)(F)F)s2)c1Cl` (stereo unspecified), for which the mortality at 200 ppm was more than 80%.
On to `Cn1nc(C(C)(C)C)c(Br)c1C(=O)Nc1nnc(C(F)(F)F)s1`, for which the mortality at 200 ppm was more than 80%.
Same read-out and setting: the value for `Cc1nn(C)c(C(=O)Nc2nnc(C(F)(F)F)s2)c1Cl` was more than 80%; that for `CCc1nn(C)c(C(=O)Nc2nnc(C(F)(F)F)s2)c1Cl` was more than 80%.
For the compound `CCCc1nn(C)c(C(=O)Nc2nnc(C(F)(F)F)s2)c1Cl`, the mortality at 200 ppm was more than 80%.
In the case of `CC(C)c1nn(C)c(C(=O)Nc2nnc(C(F)(F)F)s2)c1Cl`, the mortality at 200 ppm is more than 80%.
`CC(C)Cc1nn(C)c(C(=O)Nc2nnc(C(F)(F)F)s2)c1Cl`: the mortality at 200 ppm is more than 80%.

The test system of a further assay is Tetranychus urticae. Nature of the assay: Acaricidal activity against Tetranychus urticae (two-spotted spider mite) assessed as mite mortality at 50 ppm relative to untreated control. It is filed as functional.
Consider `Cc1nc(C(C)(C)C)sc1C(=O)Nc1nnc(C(F)(F)C(F)(F)C(F)(F)F)s1`, for which the mortality at 50 ppm was more than 80%.
Turning to `Cc1nc(C(C)(C)C)sc1C(=O)Nc1nnc(C(F)(F)C(F)(F)F)s1`, the mortality at 50 ppm is more than 80%.
Same read-out and setting: the value for `Cc1nc(C(C)(C)C)sc1C(=O)Nc1nnc(C(F)(F)C(F)(F)C(F)(F)C(F)(F)F)s1` was more than 80%; that for `Cn1nc(C(C)(C)C)c(Cl)c1C(=O)Nc1nnc(C(F)(F)F)s1` was more than 80%; that for `Cn1nc(C(C)(C)C)c(Cl)c1C(=O)Nc1nnc(C(F)(F)C(F)(F)F)s1` was more than 80%.
Consider `Cn1nc(C(C)(C)C)c(Cl)c1C(=O)Nc1nnc(C(F)(F)C(F)(F)C(F)(F)F)s1`, for which the mortality at 50 ppm is more than 80%.
Take `Cn1nc(C(C)(C)C)c(Cl)c1C(=O)Nc1nnc(C(F)(F)C(F)(F)C(F)(F)C(F)(F)F)s1`: the mortality at 50 ppm is more than 80%.
Same read-out and setting: in the case of `Cn1nc(C(C)(C)C)c(Cl)c1C(=O)Nc1nnc(C(F)(F)C(F)(F)C(F)(F)C(F)(F)C(F)(F)F)s1` it was more than 80%.

The values are drawn from ChEMBL document CHEMBL3046316, “Synthesis and Acaricidal Activity of N-(1,3,4-Thiadiazol-2-yl)pyrazole-5-carboxamides and N-(1,3,4-Thiadiazol-2-yl)thiazole-5-carboxamides” (2003).
